Measured values from ChEMBL document CHEMBL4118193, “1,2,3,4,6-Penta-O-galloyl-β-d-glucose suppresses colon cancer through induction of tumor suppressor” (Bioorg Med Chem Lett, 2018).
Activity calls are given as the source filed them. The calls are words filed in the database; no cut-off is given here.

How the values were obtained:
[1] = system: HT-29; assay: Cell cycle arrest in human HT-29 cells assessed as accumulation at G0/G1 phase at 1 uM after 48 hrs (reference value: 53.9%); assay type: functional
[2] = system: HCT-116; assay: Induction of apoptosis in human HCT116 cells assessed as live cells at 1 uM after 48 hrs by Annexin-V and dead cell assay (reference value: 96.75%); assay type: functional
[3] = system: HT-29; assay: Induction of apoptosis in human HT-29 cells assessed as p21 protein level at 2.5 uM after 48 hrs by Western blot method relative to beta-actin; assay type: functional
[4] = system: HCT-116; assay: Cell cycle arrest in human HCT116 cells assessed as accumulation at G0/G1 phase at 1 uM after 48 hrs (reference value: 38.5%); assay type: functional
[5] = system: HCT-116; assay: Anticlonogenic activity against human HCT116 cells assessed as inhibition of colony formation after 4 to 5 days by crystal violet staining-based assay; assay type: functional, cell-based
[6] = system: HCT-116; assay: Cytotoxicity against human HCT116 cells at 10 uM after 48 hrs by CytoTox-96 non-radioactive assay; assay type: functional, cell-based
[7] = system: HCT-116; assay: Induction of apoptosis in human HCT116 cells assessed as caspase-3 protein level at 2.5 uM after 48 hrs by Western blot method relative to beta-actin; assay type: functional
[8] = system: HCT-116; assay: Induction of apoptosis in human HCT116 cells after 48 hrs by Annexin-V and dead cell assay; assay type: functional, cell-based
[9] = system: HT-29; assay: Cell cycle arrest in human HT-29 cells assessed as accumulation at G2/M phase at 1 uM after 48 hrs (reference value: 14.7%); assay type: functional
[10] = system: HCT-116; assay: Cell cycle arrest in human HCT116 cells assessed as accumulation at G0/G1 phase at 2.5 uM after 48 hrs (reference value: 38.5%); assay type: functional
[11] = system: HT-29; assay: Induction of apoptosis in human HT-29 cells assessed as Bcl-2 protein level at 1 uM after 48 hrs by Western blot method relative to beta-actin; assay type: functional
[12] = system: HT-29; assay: Induction of apoptosis in human HT-29 cells assessed as p21 protein level at 1 uM after 48 hrs by Western blot method relative to beta-actin; assay type: functional
[13] = system: HCT-116; assay: Induction of apoptosis in human HCT116 cells assessed as CDK2 protein level at 10 uM after 48 hrs by Western blot method relative to beta-actin; assay type: functional
[14] = system: HCT-116; assay: Induction of apoptosis in human HCT116 cells assessed as DNA fragmentation at 1 to 10 uM after 48 hrs by ELISA; assay type: functional, cell-based
[15] = system: HT-29; assay: Induction of apoptosis in human HT-29 cells assessed as CDK2 protein level at 1 uM after 48 hrs by Western blot method relative to beta-actin; assay type: functional
[16] = system: HCT-116; assay: Induction of apoptosis in human HCT116 cells assessed as CDK2 protein level at 2.5 uM after 48 hrs by Western blot method relative to beta-actin; assay type: functional
[17] = system: HCT-116; assay: Cell cycle arrest in human HCT116 cells assessed as accumulation at G2/M phase at 10 uM after 48 hrs (reference value: 21.5%); assay type: functional
[18] = system: HT-29; assay: Induction of apoptosis in human HT-29 cells assessed as Bcl-2 protein level at 5 uM after 48 hrs by Western blot method relative to beta-actin; assay type: functional
[19] = system: HCT-116; assay: Induction of apoptosis in human HCT116 cells assessed as early apoptotic cells at 2.5 uM after 48 hrs by Annexin-V and dead cell assay (reference value: 1.70%); assay type: functional
[20] = system: HCT-116; assay: Induction of apoptosis in human HCT116 cells assessed as cleaved caspase-3 protein level at 2.5 uM after 48 hrs by Western blot method relative to caspase-3; assay type: functional
[21] = system: HCT-116; assay: Induction of apoptosis in human HCT116 cells assessed as live cells at 2.5 uM after 48 hrs by Annexin-V and dead cell assay (reference value: 96.75%); assay type: functional
[22] = system: HCT-116; assay: Induction of apoptosis in human HCT116 cells assessed as cyclin E protein level at 5 uM after 48 hrs by Western blot method relative to beta-actin; assay type: functional
[23] = system: HCT-116; assay: Induction of apoptosis in human HCT116 cells assessed as caspase-3 protein level at 10 uM after 48 hrs by Western blot method relative to beta-actin; assay type: functional
[24] = system: HT-29; assay: Induction of apoptosis in human HT-29 cells assessed as cleaved caspase-3 protein level at 10 uM after 48 hrs by Western blot method relative to caspase-3; assay type: functional
[25] = system: HCT-116; assay: Induction of apoptosis in human HCT116 cells assessed as p21 protein level at 1 uM after 48 hrs by Western blot method relative to beta-actin; assay type: functional
[26] = system: HCT-116; assay: Induction of apoptosis in human HCT116 cells assessed as late apoptotic cells at 10 uM after 48 hrs by Annexin-V and dead cell assay (reference value: 1.45%); assay type: functional
[27] = system: CCD-18Co; assay: Antiproliferative activity against human CCD-18Co cells at 1 to 10 uM after 48 hrs by CytoTox-96 non-radioactive assay; assay type: cell-based
[28] = system: HCT-116; assay: Induction of apoptosis in human HCT116 cells assessed as late apoptotic cells at 5 uM after 48 hrs by Annexin-V and dead cell assay (reference value: 1.45%); assay type: functional
[29] = system: HT-29; assay: Induction of apoptosis in human HT-29 cells after 48 hrs by Annexin-V and dead cell assay; assay type: functional, cell-based
[30] = system: HCT-116; assay: Cell cycle arrest in human HCT116 cells assessed as accumulation at G2/M phase at 2.5 uM after 48 hrs (reference value: 21.5%); assay type: functional
[31] = system: HCT-116; assay: Cell cycle arrest in human HCT116 cells assessed as accumulation at G0/G1 phase at 10 uM after 48 hrs (reference value: 38.5%); assay type: functional
[32] = system: HT-29; assay: Induction of apoptosis in human HT-29 cells assessed as p53 protein level at 1 uM after 48 hrs by Western blot method relative to beta-actin; assay type: functional
[33] = system: HT-29; assay: Anticlonogenic activity against human HT-29 cells assessed as inhibition of colony formation after 4 to 5 days by crystal violet staining-based assay; assay type: functional, cell-based
[34] = system: HCT-116; assay: Induction of apoptosis in human HCT116 cells assessed as cleaved caspase-3 protein level at 1 uM after 48 hrs by Western blot method relative to caspase-3; assay type: functional

Question: Which Activity [1] does the source give for `O=C(OC[C@H]1O[C@@H](OC(=O)c2cc(O)c(O)c(O)c2)[C@H](OC(=O)c2cc(O)c(O)c(O)c2)[C@@H](OC(=O)c2cc(O)c(O)c(O)c2)[C@@H]1OC(=O)c1cc(O)c(O)c(O)c1)c1cc(O)c(O)c(O)c1` [PENTAGALLOYL GLUCOSE] here?
Answer: 51.3%

Question: What about the Activity [2] of the same compound?
Answer: 98.25%

Question: And the “fold change (FC)” value [3]?
Answer: 2.8

Question: What about the Activity [4] of the same compound?
Answer: 37.5%

Question: What about the Activity [5] of the same compound?
Answer: Dose-dependent effect

Question: And the Activity [6]?
Answer: Active

Question: What about the “fold change (FC)” value [7] of the same compound?
Answer: 109.9

Question: What about the Activity [8] of the same compound?
Answer: Dose-dependent effect

Question: What about the Activity [9] of the same compound?
Answer: 14.8%

Question: And the Activity [10]?
Answer: 34%

Question: And the “fold change (FC)” value [11]?
Answer: 0.7

Question: And the “fold change (FC)” value [12]?
Answer: 2.4

Question: What about the “fold change (FC)” value [13] of the same compound?
Answer: 0.3

Question: What about the Activity [14] of the same compound?
Answer: Active

Question: What about the “fold change (FC)” value [15] of the same compound?
Answer: 0.9

Question: What about the “fold change (FC)” value [16] of the same compound?
Answer: 0.8

Question: What about the Activity [17] of the same compound?
Answer: 18.1%

Question: And the “fold change (FC)” value [18]?
Answer: 0.4

Question: What about the Activity [19] of the same compound?
Answer: 1.35%

Question: And the “fold change (FC)” value [20]?
Answer: 1.8

Question: What about the Activity [21] of the same compound?
Answer: 97.55%

Question: And the “fold change (FC)” value [22]?
Answer: 0.6

Question: What about the “fold change (FC)” value [23] of the same compound?
Answer: 488.4

Question: What about the “fold change (FC)” value [24] of the same compound?
Answer: 5.7

Question: And the “fold change (FC)” value [25]?
Answer: 1.3

Question: And the Activity [26]?
Answer: 6.1%

Question: What about the Activity [27] of the same compound?
Answer: Non-Toxic

Question: And the Activity [28]?
Answer: 4.35%

Question: And the Activity [29]?
Answer: Dose-dependent effect

Question: And the Activity [30]?
Answer: 20.5%

Question: What about the Activity [31] of the same compound?
Answer: 32.2%

Question: What about the “fold change (FC)” value [32] of the same compound?
Answer: 0.7

Question: What about the Activity [33] of the same compound?
Answer: Dose-dependent effect

Question: And the “fold change (FC)” value [34]?
Answer: 1
